Laboratory results reported in patent US9833455B2, “Preparation and methods of use for ortho-aryl 5-membered heteroaryl-carboxamide containing multi-targeted kinase inhibitors” (Spacefill Enterprises LLC, priority 2011, dated 2017).
Where two headings read alike, the source gives them in different places.

Tests used:
panel of kinases = test: Nanosyn kinase panel profiling (panels of 29, 220, 230, 250 kinases), whole panel; type: biochemical; conditions: for activity against any of the kinases tested: panel of 29 selected kinases
Experimental: “Inhibiting kinase activity” means to decrease the production of an phosphor-peptide by a particular kinase that can be separated by analytical techniques. […] Profiling data in this application were determined using these techniques at Nanosyn Inc. IC50 data were provided by Reaction Biology Inc using a P33 radiolabeled kinase assay.
These compounds were profiled against a panel of 230 kinases (Nanosyn Inc.).
A total of 15 new inhibitors were designed, prepared, and evaluated against a panel of 29 selected kinases in order to explore the applicability, SAR trends, and the tunability of this scaffold that could be imposed but this unique geometry, Table 21. Inhibitors I-1 to 1-12 all retained the 2-CF3-5-(4-F-phenyl) imidazole-4-carboxamide scaffold previously described (Deitrich, 2010), but explored different Hinge-Gatekeeper Motifs (HGM).
To further test the breadth of applicability and ability to achieve selectivity with inhibitors that share this scaffold geometry, I-11 and I-12 were evaluated against a larger panel of 220 high interest kinases, Table-23.

PDGFRB = target: T1, PDGFRB (Homo sapiens, UniProt P09619); conditions: 1 μM, duplicate, without preincubation; cited from earlier work
T1 construct: literature Ambit Biosciences
T1 sequence (P09619 33-1106): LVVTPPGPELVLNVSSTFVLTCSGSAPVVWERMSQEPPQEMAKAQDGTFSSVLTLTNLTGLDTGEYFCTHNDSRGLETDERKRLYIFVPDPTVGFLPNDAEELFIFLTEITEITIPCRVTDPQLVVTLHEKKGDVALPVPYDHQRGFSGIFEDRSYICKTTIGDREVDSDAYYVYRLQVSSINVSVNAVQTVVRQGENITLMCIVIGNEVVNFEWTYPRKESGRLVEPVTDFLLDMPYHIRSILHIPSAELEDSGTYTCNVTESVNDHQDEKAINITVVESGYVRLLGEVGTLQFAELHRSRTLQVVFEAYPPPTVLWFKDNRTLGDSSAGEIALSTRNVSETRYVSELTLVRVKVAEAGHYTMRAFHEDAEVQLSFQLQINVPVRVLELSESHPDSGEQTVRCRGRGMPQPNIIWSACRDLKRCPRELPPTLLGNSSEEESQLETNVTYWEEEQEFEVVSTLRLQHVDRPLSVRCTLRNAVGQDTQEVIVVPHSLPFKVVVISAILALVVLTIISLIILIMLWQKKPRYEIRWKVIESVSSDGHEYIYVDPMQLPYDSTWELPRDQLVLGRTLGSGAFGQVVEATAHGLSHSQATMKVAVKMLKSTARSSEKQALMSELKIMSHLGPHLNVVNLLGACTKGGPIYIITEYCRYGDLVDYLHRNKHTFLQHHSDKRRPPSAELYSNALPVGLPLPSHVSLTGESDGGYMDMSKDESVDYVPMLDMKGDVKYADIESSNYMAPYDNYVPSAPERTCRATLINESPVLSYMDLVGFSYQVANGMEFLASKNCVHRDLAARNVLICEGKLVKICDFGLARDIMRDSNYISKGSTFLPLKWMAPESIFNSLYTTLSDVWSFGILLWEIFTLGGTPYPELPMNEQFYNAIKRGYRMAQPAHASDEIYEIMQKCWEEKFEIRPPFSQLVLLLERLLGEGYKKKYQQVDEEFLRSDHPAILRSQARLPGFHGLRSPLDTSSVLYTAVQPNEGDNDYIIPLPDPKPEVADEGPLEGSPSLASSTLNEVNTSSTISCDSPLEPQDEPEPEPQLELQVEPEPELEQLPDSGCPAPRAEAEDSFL

ULK2 = target: T2, ULK2 (Homo sapiens, UniProt Q8IYT8); conditions: 1 μM, duplicate, without preincubation; cited from earlier work
T2 construct: literature Ambit Biosciences

PLK4 = target: T3, PLK4 (Homo sapiens, UniProt O00444); conditions: 1 μM, duplicate, without preincubation; cited from earlier work
T3 construct: literature Ambit Biosciences
T3 sequence (O00444 1-970): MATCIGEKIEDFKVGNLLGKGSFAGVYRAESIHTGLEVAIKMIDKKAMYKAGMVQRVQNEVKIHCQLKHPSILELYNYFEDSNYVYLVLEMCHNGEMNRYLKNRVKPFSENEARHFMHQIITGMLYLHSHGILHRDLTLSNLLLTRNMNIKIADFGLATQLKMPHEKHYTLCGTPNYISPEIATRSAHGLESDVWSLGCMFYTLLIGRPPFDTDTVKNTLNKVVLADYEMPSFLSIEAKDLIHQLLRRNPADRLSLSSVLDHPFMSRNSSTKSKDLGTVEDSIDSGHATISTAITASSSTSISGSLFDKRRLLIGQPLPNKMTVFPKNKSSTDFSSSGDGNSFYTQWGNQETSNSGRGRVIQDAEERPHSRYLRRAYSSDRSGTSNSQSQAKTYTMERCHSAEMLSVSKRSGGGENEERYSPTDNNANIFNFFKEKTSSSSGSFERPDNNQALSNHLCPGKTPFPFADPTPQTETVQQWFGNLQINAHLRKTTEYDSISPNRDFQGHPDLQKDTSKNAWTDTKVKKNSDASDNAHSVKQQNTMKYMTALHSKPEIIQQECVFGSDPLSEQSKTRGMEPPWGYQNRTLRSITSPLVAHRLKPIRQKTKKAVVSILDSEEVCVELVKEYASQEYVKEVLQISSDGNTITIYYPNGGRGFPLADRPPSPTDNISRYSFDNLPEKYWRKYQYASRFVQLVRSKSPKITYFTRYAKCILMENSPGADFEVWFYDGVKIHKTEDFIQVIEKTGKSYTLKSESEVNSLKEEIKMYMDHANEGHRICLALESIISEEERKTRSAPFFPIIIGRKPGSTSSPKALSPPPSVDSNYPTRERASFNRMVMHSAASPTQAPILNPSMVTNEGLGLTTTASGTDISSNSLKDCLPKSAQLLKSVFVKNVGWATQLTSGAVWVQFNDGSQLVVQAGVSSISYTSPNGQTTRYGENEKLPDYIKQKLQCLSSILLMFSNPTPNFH

DCAMKL1 = target: T4, DCAMKL1 (Homo sapiens, UniProt O15075); conditions: 1 μM, duplicate, without preincubation; cited from earlier work
T4 construct: literature Ambit Biosciences
T4 sequence (O15075 1-740): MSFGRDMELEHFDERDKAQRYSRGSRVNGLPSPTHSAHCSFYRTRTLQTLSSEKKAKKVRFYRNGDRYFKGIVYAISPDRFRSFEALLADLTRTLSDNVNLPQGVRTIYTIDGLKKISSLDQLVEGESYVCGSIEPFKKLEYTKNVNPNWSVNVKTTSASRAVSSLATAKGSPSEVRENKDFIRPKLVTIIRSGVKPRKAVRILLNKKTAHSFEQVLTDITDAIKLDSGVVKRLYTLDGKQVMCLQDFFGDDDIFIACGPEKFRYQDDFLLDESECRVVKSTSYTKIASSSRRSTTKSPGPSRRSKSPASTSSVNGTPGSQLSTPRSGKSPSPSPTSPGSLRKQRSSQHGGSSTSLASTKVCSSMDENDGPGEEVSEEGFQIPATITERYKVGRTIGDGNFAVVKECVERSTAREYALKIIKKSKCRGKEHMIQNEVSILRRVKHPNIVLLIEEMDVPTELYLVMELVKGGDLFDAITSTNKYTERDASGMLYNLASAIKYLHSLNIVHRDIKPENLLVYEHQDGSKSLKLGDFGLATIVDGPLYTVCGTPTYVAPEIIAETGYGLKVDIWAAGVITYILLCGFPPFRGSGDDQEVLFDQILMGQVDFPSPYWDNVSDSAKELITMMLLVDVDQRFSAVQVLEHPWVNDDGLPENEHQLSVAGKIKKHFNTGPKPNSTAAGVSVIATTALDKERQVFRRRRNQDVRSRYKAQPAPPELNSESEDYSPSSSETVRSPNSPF

p38-beta = target: T5, p38-beta (Homo sapiens, UniProt Q15759); conditions: 1 μM, duplicate, without preincubation; cited from earlier work
T5 construct: literature Ambit Biosciences
T5 sequence (Q15759 whole entry): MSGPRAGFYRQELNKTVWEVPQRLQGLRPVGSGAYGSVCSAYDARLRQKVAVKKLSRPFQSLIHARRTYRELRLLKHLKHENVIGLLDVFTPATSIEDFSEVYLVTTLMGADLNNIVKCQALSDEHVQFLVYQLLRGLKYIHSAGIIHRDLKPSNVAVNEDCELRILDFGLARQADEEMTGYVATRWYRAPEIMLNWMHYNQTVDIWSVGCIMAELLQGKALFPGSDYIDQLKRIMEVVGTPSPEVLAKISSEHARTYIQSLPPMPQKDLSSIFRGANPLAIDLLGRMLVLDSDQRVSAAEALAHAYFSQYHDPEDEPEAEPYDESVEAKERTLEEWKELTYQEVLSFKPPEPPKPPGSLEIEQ

RAF1 = target: T6, RAF1 (Homo sapiens, UniProt P04049); conditions: 1 μM, duplicate, without preincubation; cited from earlier work
T6 construct: literature Ambit Biosciences

KIT = KIT (Homo sapiens, UniProt P10721); conditions: 1 μM, duplicate, without preincubation; cited from earlier work
BTK = target: T7, BTK (Homo sapiens, UniProt Q06187); conditions: 1 μM, duplicate, without preincubation; cited from earlier work
T7 construct: literature Ambit Biosciences
T7 sequence (Q06187 whole entry): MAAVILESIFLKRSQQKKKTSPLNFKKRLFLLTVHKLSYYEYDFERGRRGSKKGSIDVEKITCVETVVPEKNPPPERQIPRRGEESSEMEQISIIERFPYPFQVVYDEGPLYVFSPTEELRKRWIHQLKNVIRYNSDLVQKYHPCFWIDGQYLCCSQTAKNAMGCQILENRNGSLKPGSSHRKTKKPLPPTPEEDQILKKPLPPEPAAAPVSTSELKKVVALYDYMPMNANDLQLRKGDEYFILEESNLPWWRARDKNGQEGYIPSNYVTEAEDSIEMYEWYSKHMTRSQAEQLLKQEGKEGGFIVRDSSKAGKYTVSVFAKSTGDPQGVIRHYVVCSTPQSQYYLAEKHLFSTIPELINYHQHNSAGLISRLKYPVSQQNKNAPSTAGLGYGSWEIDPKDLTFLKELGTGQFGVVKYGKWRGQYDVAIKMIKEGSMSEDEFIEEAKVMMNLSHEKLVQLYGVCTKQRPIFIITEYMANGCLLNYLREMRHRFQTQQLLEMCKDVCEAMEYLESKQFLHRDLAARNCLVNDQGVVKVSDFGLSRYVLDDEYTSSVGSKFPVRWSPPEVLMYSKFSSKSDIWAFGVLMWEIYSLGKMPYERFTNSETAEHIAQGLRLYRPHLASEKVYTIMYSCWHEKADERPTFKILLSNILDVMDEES

PRKCE = target: T8, PRKCE (Homo sapiens, UniProt Q02156); conditions: 1 μM, duplicate, without preincubation; cited from earlier work
T8 construct: literature Ambit Biosciences
T8 sequence (Q02156 1-737): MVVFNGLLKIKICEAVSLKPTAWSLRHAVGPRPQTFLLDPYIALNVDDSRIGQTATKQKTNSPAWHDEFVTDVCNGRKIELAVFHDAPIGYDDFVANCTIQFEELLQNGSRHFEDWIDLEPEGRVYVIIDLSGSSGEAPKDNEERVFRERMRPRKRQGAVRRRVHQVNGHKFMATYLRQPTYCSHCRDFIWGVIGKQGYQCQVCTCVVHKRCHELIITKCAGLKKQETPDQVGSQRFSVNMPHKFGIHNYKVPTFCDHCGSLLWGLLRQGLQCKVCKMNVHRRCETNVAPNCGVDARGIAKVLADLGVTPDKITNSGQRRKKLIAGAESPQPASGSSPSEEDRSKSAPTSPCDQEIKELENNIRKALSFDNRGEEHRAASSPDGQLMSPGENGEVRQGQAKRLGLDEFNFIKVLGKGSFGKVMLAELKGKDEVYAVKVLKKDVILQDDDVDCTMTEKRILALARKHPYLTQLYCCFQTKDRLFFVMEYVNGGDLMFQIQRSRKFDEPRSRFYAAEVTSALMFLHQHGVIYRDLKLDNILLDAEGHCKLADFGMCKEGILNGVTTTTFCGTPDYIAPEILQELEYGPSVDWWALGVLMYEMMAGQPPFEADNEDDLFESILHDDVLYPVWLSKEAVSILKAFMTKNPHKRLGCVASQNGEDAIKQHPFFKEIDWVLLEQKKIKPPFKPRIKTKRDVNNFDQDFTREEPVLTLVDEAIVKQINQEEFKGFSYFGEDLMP

PDGFRA = target: T9, PDGFRA (Homo sapiens, UniProt P16234); conditions: 1 μM, duplicate, without preincubation; cited from earlier work
T9 construct: literature Ambit Biosciences

CDK7 = target: T10, CDK7 (Homo sapiens, UniProt P50613); conditions: 1 μM, duplicate, without preincubation; cited from earlier work
T10 construct: literature Ambit Biosciences
T10 sequence (P50613 whole entry): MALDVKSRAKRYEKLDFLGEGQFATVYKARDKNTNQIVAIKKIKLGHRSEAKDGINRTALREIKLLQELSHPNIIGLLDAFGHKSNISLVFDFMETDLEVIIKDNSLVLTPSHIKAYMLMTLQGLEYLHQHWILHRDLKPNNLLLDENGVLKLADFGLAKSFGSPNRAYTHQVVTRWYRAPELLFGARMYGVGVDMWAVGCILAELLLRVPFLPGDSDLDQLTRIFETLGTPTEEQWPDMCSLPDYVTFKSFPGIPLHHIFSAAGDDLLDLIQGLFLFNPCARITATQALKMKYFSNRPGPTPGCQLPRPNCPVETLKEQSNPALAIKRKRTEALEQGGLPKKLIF

BRAF(V600E) [1] = target: T11, BRAF(V600E) (Homo sapiens, UniProt P15056, V600E); parameters: literature Ambit Biosciences; conditions: 1 μM, duplicate, without preincubation; cited from earlier work
T11 sequence (P15056 whole entry V600E): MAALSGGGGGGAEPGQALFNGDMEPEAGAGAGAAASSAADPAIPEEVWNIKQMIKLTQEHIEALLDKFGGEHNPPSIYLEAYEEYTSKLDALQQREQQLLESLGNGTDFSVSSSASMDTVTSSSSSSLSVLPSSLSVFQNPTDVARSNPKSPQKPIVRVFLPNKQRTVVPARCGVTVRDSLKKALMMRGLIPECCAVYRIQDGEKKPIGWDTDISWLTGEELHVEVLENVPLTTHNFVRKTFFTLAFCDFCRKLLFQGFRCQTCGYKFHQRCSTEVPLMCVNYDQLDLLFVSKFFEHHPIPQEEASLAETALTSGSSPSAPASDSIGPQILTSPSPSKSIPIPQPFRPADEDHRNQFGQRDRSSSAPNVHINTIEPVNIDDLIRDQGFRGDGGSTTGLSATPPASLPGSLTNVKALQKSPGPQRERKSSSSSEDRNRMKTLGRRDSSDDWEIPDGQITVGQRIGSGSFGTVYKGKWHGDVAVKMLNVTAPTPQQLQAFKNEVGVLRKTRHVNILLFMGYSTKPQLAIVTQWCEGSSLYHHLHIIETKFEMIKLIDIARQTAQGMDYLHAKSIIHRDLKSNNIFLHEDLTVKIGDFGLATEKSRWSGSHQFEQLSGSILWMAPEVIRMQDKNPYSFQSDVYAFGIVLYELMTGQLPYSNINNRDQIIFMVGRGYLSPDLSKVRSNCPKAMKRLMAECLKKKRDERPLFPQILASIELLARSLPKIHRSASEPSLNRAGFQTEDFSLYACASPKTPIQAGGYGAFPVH

CSF1R = target: T12, CSF1R (Homo sapiens, UniProt P07333); conditions: 1 μM, duplicate, without preincubation; cited from earlier work
T12 construct: literature Ambit Biosciences

p38-alpha = target: T13, p38-alpha (Homo sapiens, UniProt Q16539); conditions: 1 μM, duplicate, without preincubation; cited from earlier work
T13 construct: literature Ambit Biosciences
T13 sequence (Q16539 whole entry): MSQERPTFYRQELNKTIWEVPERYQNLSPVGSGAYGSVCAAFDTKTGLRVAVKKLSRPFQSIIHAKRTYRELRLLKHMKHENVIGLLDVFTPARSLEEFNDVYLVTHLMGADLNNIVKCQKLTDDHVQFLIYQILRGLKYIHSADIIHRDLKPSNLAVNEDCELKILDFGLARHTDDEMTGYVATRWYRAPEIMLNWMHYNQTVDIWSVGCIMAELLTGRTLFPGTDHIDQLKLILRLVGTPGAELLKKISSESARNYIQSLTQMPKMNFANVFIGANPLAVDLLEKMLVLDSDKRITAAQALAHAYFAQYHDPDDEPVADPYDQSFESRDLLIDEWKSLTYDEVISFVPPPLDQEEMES

JAK2 (catalytic) = target: T14, JAK2 (catalytic) (Homo sapiens, UniProt O60674); conditions: 1 μM, duplicate, without preincubation; cited from earlier work
T14 construct: catalytic; literature Ambit Biosciences
T14 sequence (O60674 849-1124 limits assumed): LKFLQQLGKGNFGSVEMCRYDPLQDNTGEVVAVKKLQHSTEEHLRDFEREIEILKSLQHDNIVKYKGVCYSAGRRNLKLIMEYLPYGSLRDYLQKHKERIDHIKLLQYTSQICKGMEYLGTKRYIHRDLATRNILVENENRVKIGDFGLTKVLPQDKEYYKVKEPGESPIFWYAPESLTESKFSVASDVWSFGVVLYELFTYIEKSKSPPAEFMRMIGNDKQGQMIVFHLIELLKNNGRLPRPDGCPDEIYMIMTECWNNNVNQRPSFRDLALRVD

CDK11 = target: T15, CDK11 (Homo sapiens, UniProt Q9BWU1); conditions: 1 μM, duplicate, without preincubation; cited from earlier work
T15 construct: literature Ambit Biosciences

IKK-beta = target: T16, IKK-beta (Homo sapiens, UniProt O14920); conditions: 1 μM, duplicate, without preincubation; cited from earlier work
T16 construct: literature Ambit Biosciences
T16 sequence (O14920 whole entry): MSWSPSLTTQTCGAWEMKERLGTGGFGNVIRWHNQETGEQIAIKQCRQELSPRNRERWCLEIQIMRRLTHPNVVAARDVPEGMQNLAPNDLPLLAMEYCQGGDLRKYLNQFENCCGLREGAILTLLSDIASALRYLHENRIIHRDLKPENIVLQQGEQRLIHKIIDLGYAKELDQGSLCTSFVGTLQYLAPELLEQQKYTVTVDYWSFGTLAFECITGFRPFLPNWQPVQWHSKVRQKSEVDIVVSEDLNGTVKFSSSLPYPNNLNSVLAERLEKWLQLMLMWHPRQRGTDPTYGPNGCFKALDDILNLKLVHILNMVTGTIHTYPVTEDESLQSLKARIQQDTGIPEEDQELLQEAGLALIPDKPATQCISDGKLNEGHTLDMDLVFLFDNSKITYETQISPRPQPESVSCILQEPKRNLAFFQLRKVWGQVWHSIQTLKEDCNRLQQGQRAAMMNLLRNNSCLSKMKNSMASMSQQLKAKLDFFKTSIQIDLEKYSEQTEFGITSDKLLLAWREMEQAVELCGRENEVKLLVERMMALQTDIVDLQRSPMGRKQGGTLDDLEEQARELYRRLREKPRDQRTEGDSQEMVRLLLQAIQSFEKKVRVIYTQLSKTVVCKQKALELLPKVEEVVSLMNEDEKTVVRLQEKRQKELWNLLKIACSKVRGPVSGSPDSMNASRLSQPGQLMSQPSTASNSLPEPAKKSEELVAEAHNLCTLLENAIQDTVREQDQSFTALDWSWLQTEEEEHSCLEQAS

BRAF = target: T17, BRAF (Homo sapiens, UniProt P15056); conditions: 1 μM, duplicate, without preincubation; cited from earlier work
T17 construct: literature Ambit Biosciences
T17 sequence (P15056 whole entry): as the sequence (P15056 whole entry V600E) above, with E600V counted along it

BRAF(V600E) [2] = target: T11, BRAF(V600E); test: Real time kinetic experiments; type: biochemical
Experimental: (§1) To test both our binding mode hypothesis and to see if these structural differences could be taken exploited to impart selectivity and potency improvements, I-13, in which the lipophilic 2-trifluoromethy substituent on imidazole ring of inhibitor KIN-035, was replaced by the polar 2-methylsulfonyl substitutent. […] To address this issue, real time kinetic experiments were performed.

wild type B-Raf = wild type B-Raf (Homo sapiens, UniProt P15056); test: LanthaScreen assay, IC50; type: biochemical
Chain of wild type B-Raf (P15056 whole entry): as the sequence (P15056 whole entry V600E) above, with E600V counted along it
Experimental: as §1

BRAF(V600E) [3] = target: T11, BRAF(V600E); test: LanthaScreen assay, side by side IC50 comparison; type: biochemical
Experimental: as §1

O=C(Nc1ccncc1)c1cc(NC(=O)c2nc(C(F)(F)F)[nH]c2-c2ccc(F)cc2)ccc1Cl [Inhibitor I-2, 5-(4-Fluoro-phenyl)-2-trifluoromethyl-3H-imidazole-4-carboxylic acid [4-chloro-3-(pyridin-4-ylcarbamoyl)-phenyl]-amide]
activity against any of the kinases tested (panel of kinases): no significant activity

Cc1ccc(NC(=O)c2[nH]c(C(F)(F)F)nc2-c2ccc(F)c(F)c2)cc1Nc1ccc2ncn(C)c(=O)c2c1 [KIN-057]
inhibition of PDGFRB (PDGFRB): XXX (XXX > 75% @ 1 μM)
inhibition of ULK2 (ULK2): X (X > 25% @ 1 μM)
inhibition of PLK4 (PLK4): X (X > 25% @ 1 μM)
inhibition of DCAMKL1 (DCAMKL1): X (X > 25% @ 1 μM)
inhibition of p38-beta (p38-beta): X (X > 25% @ 1 μM)
inhibition of RAF1 (RAF1): XXXX (XXXX > 90% @ 1 μM)
inhibition of KIT (KIT): XXX (XXX > 75% @ 1 μM)
inhibition of BTK (BTK): X (X > 25% @ 1 μM)
inhibition of PRKCE (PRKCE): X (X > 25% @ 1 μM)
inhibition of PDGFRA (PDGFRA): X (X > 25% @ 1 μM)
inhibition of CDK7 (CDK7): X (X > 25% @ 1 μM)
inhibition of BRAF(V600E) (BRAF(V600E) [1]): XXX (XXX > 75% @ 1 μM)
inhibition of CSF1R (CSF1R): X (X > 25% @ 1 μM)
inhibition of p38-alpha (p38-alpha): XXX (XXX > 75% @ 1 μM)
inhibition of JAK2 (catalytic) (JAK2 (catalytic)): X (X > 25% @ 1 μM)
inhibition of CDK11 (CDK11): XX (XX > 50% @ 1 μM)
inhibition of IKK-beta (IKK-beta): X (X > 25% @ 1 μM)
inhibition of BRAF (BRAF): XXX (XXX > 75% @ 1 μM)

O=C(Nc1ccc(Oc2ccnc3[nH]c(=O)[nH]c23)cc1)c1nc(C(F)(F)F)[nH]c1-c1ccc(F)cc1 [Inhibitor I-12, 4-(4-{[5-(4-Fluoro-phenyl)-2-trifluoromethyl-3H-imidazole-4-carbonyl]-amino}-phenoxy)-pyridine-2,3-benzimidazolone carboxylic acid methylamide]
number of panel kinases at >25% inhibition (panel of kinases; panel of 220 kinases, 5 μM): 72 kinases
number of panel kinases with greater than 50% inhibition (panel of kinases; panel of 220 kinases, 5 μM): 45 kinases

Cc1ccc(NC(=O)c2nc(C(F)(F)F)[nH]c2-c2ccc(F)cc2)cc1NC(=O)c1c[nH]c2ncccc12 [Inhibitor I-11, 1H-7-Azaindole-3-carboxylic acid (5-{[5-(4-fluoro-phenyl)-2-trifluoromethyl-3H-imidazole-4-carbonyl]-amino}-2-methyl-phenyl)-amide]
selectivity in kinase panel (panel of kinases; panel of 220 kinases, 5 μM): extremely selective for p38-α

O=C(Nc1ccccn1)c1cc(NC(=O)c2nc(C(F)(F)F)[nH]c2-c2ccc(F)cc2)ccc1Cl [Inhibitor I-1, 5-(4-Fluoro-phenyl)-2-trifluoromethyl-3H-imidazole-4-carboxylic acid [4-chloro-3-(pyridin-2-ylcarbamoyl)-phenyl]-amide]
activity against any of the kinases tested (panel of kinases): no significant activity

Cc1ccc(NC(=O)c2nc(S(C)(=O)=O)[nH]c2-c2ccc(F)cc2)cc1Nc1ccc2ncn(C)c(=O)c2c1 [Inhibitor I-13, 3-(3-methyl-4-oxo-3,4-dihydroquinazolin-6-ylamino)-4-methyl-analine, 5-(4-Fluorophenyl)-2-(methylsulfonyl)-1H-imidazole-4-carboxamide]
real time kinetic data with B-Raf(V600E) (BRAF(V600E) [2]): consistent with either extremely tight binding or irreversible inhibition
real time kinetic data with B-Raf(V600E) (BRAF(V600E) [2]; listed as SFE-0013): consistent with extremely tight or irreversible inhibition
IC50 (wild type B-Raf): ~500 nM
more potent against the mutant verses wild type B-Raf (BRAF(V600E) [3]; B-Raf(V600E) vs wild type B-Raf): approximately 80 fold
increase in potency vs KIN-0035 (BRAF(V600E) [3]; LanthaScreen assay, IC50 ratio): 10 fold
IC50 (BRAF(V600E) [3]; LanthaScreen assay, side by side comparison): 6.6 nM
change of IC50 value with preincubation (BRAF(V600E) [3]; several hour preincubation period): appeared to decrease over a several hour preincubation period
